{"source": "paper PMC12608329", "about": "“Inhibition of α-Glucosidase Activity and Islet Amyloid PolyPeptide Fibril Formation by Rubus ulmifolius Fruit Extract: A Potential Therapeutic Approach for Type 2 Diabetes Mellitus” (Plants, 2025)", "key": {"[1]": {"assay": "ABTS radical scavenging activity", "settings": "mean ± SD, three independent assays", "protocol": "[50]. A volume of 10 μL of the extract was mixed with 1 mL of ABTS+ solution previously diluted to reach an absorbance of approximately 0.70 ± 0.05 (mean ± SD). After 1 min of incubation, the absorbance was recorded at 734 nm. Trolox (6-hydroxy-2,5,7,8-tetramethylchroman-2-carboxylic acid) was employed as the reference antioxidant. Results were expressed as the effective concentration required to achieve 50% reduction of the initial absorbance (EC50)."}, "IAPP": {"system": "IAPP", "design": "method as in PMID 40305223", "settings": "cited from earlier work"}, "[2]": {"system": "human islets exposed to amylin", "design": "method as in PMID 34614009", "settings": "cited from earlier work"}}, "data": [{"molecule": "Cc1c(C)c2c(c(C)c1O)CCC(C)(C(=O)O)O2", "note": "(centres unmarked) [Trolox, 6-hydroxy-2,5,7,8-tetramethylchroman-2-carboxylic acid]", "values": [{"measurement": "ABTS EC50", "setting": "[1]", "value": "3.4 ± 0.3", "unit": "µg/mL"}]}, {"molecule": "COc1cc(/C=C/C(=O)CC(=O)/C=C/c2ccc(O)c(OC)c2)ccc1O", "note": "[curcumin]", "values": [{"measurement": "IAPP aggregation", "setting": "IAPP", "value": "reduce IAPP aggregation"}]}, {"molecule": "OC[C@H]1O[C@@H](Oc2cc3c(O)cc(O)cc3[o+]c2-c2ccc(O)c(O)c2)[C@H](O)[C@@H](O)[C@@H]1O", "note": "[cyanidin 3-O-glucoside, cyanidin-3-O-glucoside]", "values": [{"measurement": "amyloid formation in human islets exposed to amylin", "setting": "[2]", "value": "inhibit amyloid formation"}, {"measurement": "cell viability of human islets exposed to amylin", "setting": "[2]", "value": "increase cell viability"}]}, {"molecule": "epigallocatechin 3-gallate", "values": [{"measurement": "IAPP aggregation", "setting": "IAPP", "value": "reduce IAPP aggregation"}]}]}
